The numbers were not newly measured in patent US6909021B2, “Method of extracting lutein from green plant materials” (Alfalfa America, Inc., priority 2003, dated 2005), which cites them from elsewhere.

Series [1] has as its system age-related macular degeneration (AMD). To be noted: dietary intake.
The conditions of series [2]: water wash of green protein chloroplast fraction.

With `CC1=C(/C=C/C(C)=C/C=C/C(C)=C/C=C/C=C(C)/C=C/C=C(C)/C=C/C2=C(C)CCCC2(C)C)C(C)(C)CCC1` [Beta-carotene], the “effect on the rate of AMD” value in series [1] is reported as “not seen to have an effect”.

Take `CC1=C[C@H](O)CC(C)(C)[C@H]1/C=C/C(C)=C/C=C/C(C)=C/C=C/C=C(C)/C=C/C=C(C)/C=C/C1=C(C)C[C@@H](O)CC1(C)C` [Lutein]: the solubility in water entry in series [2] was “very little solubility”.

With `[Zn]` [zinc], the “effect on the rate of AMD” value in series [1] was “not seen to have an effect”.

Take vitamin A: in series [1], the “effect on the rate of AMD” value is given as “not seen to have an effect”.

As to vitamin E, the “effect on the rate of AMD” value in series [1] was “not seen to have an effect”.
